Where two headings read alike, the source gives them in different places.
Experiments:
Type in all cases: biochemical
[1] = biological target: T1, human recombinant Monoacylglycerol Lipase (Homo sapiens, UniProt Q99685); assay: MAGL inhibition enzymatic assay, fluorogenic substrate 7-HCA, IC50 at T=0 min or after 30 minute incubation (T=30 min); details: geometric mean of 2-4 determinations unless otherwise indicated
T1 sequence (Q99685 1-303): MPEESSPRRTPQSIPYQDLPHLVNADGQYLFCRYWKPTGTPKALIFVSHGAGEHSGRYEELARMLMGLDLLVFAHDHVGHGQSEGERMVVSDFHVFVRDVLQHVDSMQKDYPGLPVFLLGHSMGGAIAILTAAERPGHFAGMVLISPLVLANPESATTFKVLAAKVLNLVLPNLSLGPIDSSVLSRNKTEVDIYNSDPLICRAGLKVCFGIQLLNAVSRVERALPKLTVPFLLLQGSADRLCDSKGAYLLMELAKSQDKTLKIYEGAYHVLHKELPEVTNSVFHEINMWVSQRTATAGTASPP
Method: An equal volume of 7-HCA in assay buffer with 10% DMSO was added either immediately (T=0 min) or after a 30 minute incubation (T=30 min) to initiate the reaction. […] After these dilutions, the final concentration of the test compound ranged from 3 μM to 0.03 nM. […] IC50 values were generated based on a four parameter fit model using ABASE software from IDBS.

[2] = biological target: T1, human recombinant Monoacylglycerol Lipase; assay: MAGL inactivation, enzyme progress curves, kinact/KI; details: from enzyme progress curves, T = 0 min protocol; geometric mean of 2-4 determinations unless otherwise indicated
Method: Assessment of MAGL inhibition utilizes human recombinant Monoacylglycerol Lipase and the fluorogenic substrate 7-hydroxycoumarinyl arachidonate (7-HCA, Biomol ST-502). 400 nL of a test compound at decreasing concentration (ranging from 150 μM down to 1.5 nM) was spotted into a 384-well back plate (PerkinElmer, 6007279) using a Labcyte Echo, followed by addition of 10 μL of MAGL enzyme in assay buffer (50 mM HEPES, pH 7.4, 100 mM NaCl, 5 mM MgCl2, 0.1% Triton X-100 and 25% glycerin). An equal volume of 7-HCA in assay buffer with 10% DMSO was added either immediately (T=0 min) or after a 30 minute incubation (T=30 min) to initiate the reaction. The final concentration of MAGL enzyme was […] and 7-HCA substrate was 5 μM. After these dilutions, the final concentration of the test compound ranged from 3 μM to 0.03 nM. The reaction was allowed to progress for 60 minutes, after which the plate was read at an Ex/Em of 340/465. Percent inhibitions were calculated based on control wells containing no compound (0% inhibition) and a control compound (e.g., a MAGL inhibitor whose activity is known or was previously reported in the literature, such as one with about 100% inhibition). IC50 values were generated based on a four parameter fit model using ABASE software from IDBS. See e.g., Wang, Y. et al., “A Fluorescence-Based Assay for Monoacylglycerol Lipase Compatible with Inhibitor Screening,” Assay and Drug Development Technologies, 2008, Vol. 6 (3) pp 387-393 (reporting an assay for measuring MAGL activity).
To measure MAGL inactivation, the same protocol for the (T=0 min) MAGL inhibition IC50 assay was performed with data collected every minute to acquire enzyme progress curves at decreasing concentrations of compound.

human recombinant FAAH = biological target: T2, human recombinant FAAH (Homo sapiens, UniProt O00519); assay: FAAH inhibition enzymatic assay, fluorescent substrate Arachidonoyl-AMC, 30 minute incubation; details: T = 30 min (30 minute incubation); geometric mean of 2-4 determinations unless otherwise indicated
T2 construct: purchased Cayman 10010183
T2 sequence (O00519 1-579): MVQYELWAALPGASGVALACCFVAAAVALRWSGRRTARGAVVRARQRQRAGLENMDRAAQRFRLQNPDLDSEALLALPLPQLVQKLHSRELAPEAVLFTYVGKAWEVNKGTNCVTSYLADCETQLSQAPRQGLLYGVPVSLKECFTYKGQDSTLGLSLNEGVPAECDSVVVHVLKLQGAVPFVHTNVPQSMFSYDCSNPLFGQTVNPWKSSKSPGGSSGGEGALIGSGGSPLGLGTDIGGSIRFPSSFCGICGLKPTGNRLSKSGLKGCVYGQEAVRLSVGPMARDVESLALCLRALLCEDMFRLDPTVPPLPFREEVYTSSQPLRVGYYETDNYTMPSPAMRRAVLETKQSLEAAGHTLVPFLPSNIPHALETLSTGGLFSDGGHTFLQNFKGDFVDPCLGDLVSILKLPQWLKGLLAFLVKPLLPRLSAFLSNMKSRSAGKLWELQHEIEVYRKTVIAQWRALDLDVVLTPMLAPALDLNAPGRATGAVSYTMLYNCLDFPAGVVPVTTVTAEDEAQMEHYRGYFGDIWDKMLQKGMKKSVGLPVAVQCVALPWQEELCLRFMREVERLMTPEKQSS
Method: Assessment of FAAH inhibition utilizes human recombinant FAAH and the fluorescent substrate, Arachidonoyl-AMC. 400 nL of a test compound at decreasing concentrations was spotted into a 384-well back plate (PerkinElmer, 6007279) using a Labcyte Echo, followed by addition of 10 μl of FAAH enzyme (Cayman 10010183) in assay buffer (50 mM Tris, pH 9.0, 1 mM EDTA). After a 30 minute incubation at room temperature, 10 μL of Arachidonyl-AMCA was added in assay buffer with 16% DMSO. Final concentration of FAAH enzyme was 0.0125 Units and AAMCA substrate was used at the Km of 5 μM. […] The reaction was allowed to progress for 60 minutes, after which the plate was read on a Molecular Devices FlexStation reader at an Ex/Em of 355/460. Percent inhibitions were calculated based on controls wells containing either no compound (0% inhibition) or a control compound (e.g., an FAAH inhibitor whose activity is known or was previously reported in the literature, such as one with about 100% inhibition). IC50 values were generated based on a four parameter fit model using ABASE software from IDBS.

[3] = T = 0 min (substrate added immediately), read-out: MAGL (T = 0 min) IC50
[4] = T = 30 min (30 minute incubation), read-out: MAGL (T = 30 min) IC50

IC50 [1, 3] [µM] | IC50 [1, 4] [µM] | MAGL kinact/KI [2] | IC50 (human recombinant FAAH) [µM] | SMILES
0.192 | 0.02 | 1897 1/s per M | > 30 | O=C(O)C(F)(F)F.O=C(O[C@H](CO)C(F)(F)F)N1CCC2(CC1)CC(c1ccc(F)cn1)CO2 (mixture of isomers) [Example 97, (2R)-1,1,1-Trifluoro-3-hydroxypropan-2-yl 3-(5-fluoropyridin-2-yl)-1-oxa-8-azaspiro[4.5]decane-8-carboxylate, trifluoroacetate salt]
0.071 | 0.007 | 4933 1/s per M | > 30 | O=C(O[C@H](CO)C(F)(F)F)N1CCC2(CC1)CCN(C(=O)c1ccccc1F)C2 [Example 98, (2R)-1,1,1-Trifluoro-3-hydroxypropan-2-yl 2-(2-fluorobenzoyl)-2,8-diazaspiro[4.5]decane-8-carboxylate]
0.185 | 0.015 | 2154 1/s per M | 16.3 | CN([C@H]1COC2(CCN(C(=O)O[C@H](CO)C(F)(F)F)CC2)C1)S(=O)(=O)c1cnn(C)c1 [Example 138]
0.215 | 0.026 | 1336 1/s per M | 18.3 | Cc1ccc(CC2COC3(CCN(C(=O)O[C@H](CO)C(F)(F)F)CC3)C2)nc1 (mixture of isomers) [Example 102, (2R)-1,1,1-Trifluoro-3-hydroxypropan-2-yl 3-[(5-methylpyridin-2-yl)methyl]-1-oxa-8-azaspiro[4.5]decane-8-carboxylate]
0.065 | 0.007 | 5464 1/s per M | > 30 | O=C(O[C@H](CO)C(F)(F)F)N1CCC2(CC1)CCN(C(=O)c1nccs1)C2 [Example 125]
0.003 | 0.0002 | 430364 1/s per M | 7.87 | CC(C)c1cccc(S(=O)(=O)N2CCOC3(CCN(C(=O)O[C@H](CO)C(F)(F)F)CC3)C2)c1 [Example 66]
0.179 | 0.017 | 3701 1/s per M | > 30 | CC(c1ccc(F)cc1)N1CCOC2(CCN(C(=O)O[C@H](CO)C(F)(F)F)CC2)C1 (single isomer, unassigned) [Example 44]
0.086 | 0.01 | 5664 1/s per M | > 28.7 | CN(C(=O)c1ccccc1)C1COC2(CCN(C(=O)O[C@H](CO)C(F)(F)F)CC2)C1 (single isomer, unassigned) [Example 100]
0.008 | 0.001 | 45138 1/s per M | 7.54 | C#Cc1ccc(-n2ccc([C@H]3[C@@H]4CN(C(=O)O[C@H](CO)C(F)(F)F)C[C@@H]43)n2)cc1 [Example 81]
0.096 | 0.01 | 2585 1/s per M | > 30 | CN(C(=O)CC1CCC1)[C@H]1COC2(CCN(C(=O)O[C@H](CO)C(F)(F)F)CC2)C1 [Example 143]
0.031 | 0.002 | 16949 1/s per M | 7.73 | O=C(O)C(F)(F)F.O=C(O[C@H](CO)C(F)(F)F)N1CCC(Oc2nccc3ccccc23)CC1 [Example 26, (2R)-1,1,1-Trifluoro-3-hydroxypropan-2-yl 4-(isoquinolin-1-yloxy)piperidine-1-carboxylate, trifluoroacetic acid salt]
0.01 | 0.001 | 127771 1/s per M | > 30 | CC(C)N([C@H]1COC2(CCN(C(=O)O[C@H](CO)C(F)(F)F)CC2)C1)S(=O)(=O)c1ccccc1 [Example 107]
0.032 | 0.003 | 23176 1/s per M | 3.57 | O=C(O[C@H](CO)C(F)(F)F)N1CCC2(CC1)CC(c1cccc(Cl)c1)CO2 (mixture of isomers) [Example 119]
0.021 | 0.002 | 34918 1/s per M | > 30 | CN(C1COC2(CCN(C(=O)O[C@H](CO)C(F)(F)F)CC2)C1)S(=O)(=O)c1cccc(F)c1 (single isomer, unassigned) [Example 109]
0.096 | 0.007 | 9930 1/s per M | > 23.4 | O=C(O[C@H](CO)C(F)(F)F)N1CCC2(CC1)CCN(S(=O)(=O)c1nccs1)C2 [Example 134]
0.077 | 0.007 | 3519 1/s per M | > 30 | CN(C(=O)c1cccc(F)c1)[C@H]1COC2(CCN(C(=O)O[C@H](CO)C(F)(F)F)CC2)C1 [Example 141]
0.016 | 0.001 | 131495 1/s per M | 8.72 | O=C(O[C@H](CO)C(F)(F)F)N1CCC2(CC1)CC(c1ccccc1)CO2 (single isomer, unassigned) [Example 95]
0.094 | 0.009 | 4595 1/s per M | > 30 | CN([C@H]1COC2(CCN(C(=O)O[C@H](CO)C(F)(F)F)CC2)C1)S(=O)(=O)CC1CCC1 [Example 140]
0.086 | 0.011 | 4241 1/s per M | 17.4 | O=C(O[C@H](CO)C(F)(F)F)N1CCC2(CC1)CC(N1CCc3ccccc3S1(=O)=O)CO2 (mixture of isomers) [Example 131]
0.061 | 0.006 | 4611 1/s per M | > 30 | O=C(OC(C(F)(F)F)C(F)(F)CO)N1CCC2(CC1)CN(S(=O)(=O)c1ccc(F)cc1)CCO2 (single isomer, unassigned; ent-1) [Example 20, 1,1,1,3,3-Pentafluoro-4-hydroxybutan-2-yl 4-[(4-fluorophenyl)sulfonyl]-1-oxa-4,9-diazaspiro[5.5]undecane-9-carboxylate, ENT-1]
0.022 | 0.002 | 59993 1/s per M | 9.76 | O=C(O[C@H](CO)C(F)(F)F)N1CCC2(CC1)CCN(S(=O)(=O)c1ccccc1)C2 [Example 105, (2R)-1,1,1-Trifluoro-3-hydroxypropan-2-yl 2-(phenylsulfonyl)-2,8-diazaspiro[4.5]decane-8-carboxylate]

From US10723711B2, “1,1,1-trifluoro-3-hydroxypropan-2-yl carbamate derivatives and 1,1,1-trifluoro-4-hydroxybutan-2-yl carbamate derivatives as MAGL inhibitors” (PFIZER INC., priority 2015, dated 2020)
